Test [1] has as its target T1, recombinant Nav 1.3 channels (Homo sapiens, UniProt Q9NY46).
T1 construct: expressed in transfected cells; host or cells: HEK293 cells
Description: Patch clamp studies of sodium currents inhibition in HEK293 cells. Format: cell-based. The settings on record: tonic block, preconditioning −50 mV (half maximal steady-state inactivated condition); read-out: IC50 (Vhalf). Here is the method: Cells and methods: Functional inhibition of the sodium currents was studied using whole cell patch clamp methods (Hamill O. P., Marty A., Neher E., Sakmann B., Sigworth F. J., Pflugers Arch. (1981) 391 (2): 85-100) on HEK293 cells expressing recombinant Nav 1.3 channels. Membrane currents were recorded as described in the example above.
For sodium current recording control bath solution contained (mM): NaCl (80), Choline chloride (38), CaCl2 (1.3), MgCl2 (2), KCl (2), CdCl2 (0.4), NiCl2 (0.3), TEA.Cl (20), Hepes (10), Glucose (10). Internal pipette solution consisted of (mM): EGTA (10), NaCl (10), CaCl2 (1.3), MgCl2 (2), Hepes (10), CsF (130), MgATP (1).
(§1) Compounds were dissolved as 20 mM stock solutions in DMSO and then diluted to the final concentration in the external solutions.
Voltage protocols and data analyses: A two-step protocol was used to determine the voltage dependence of the block:
sodium current was activated by a 30 ms step pulse to 10 mV (test pulse) from a 2000 ms preconditioning potential of −100 mV (resting condition) or −50 mV (half maximal steady-state inactivated condition), respectively.
The amplitude of sodium current peaks evoked by the respective test pulses at a frequency of 0.06 Hz were measured before and after exposure to the test substance. Tonic block of currents was calculated as the difference between the Nacurrent peak measured at the end of a stabilization period in the control external bath solution and the current peak measured at the end of test substance perfusion period (when steady state is reached) divided by control peaks. Drug concentration-inhibition curves were obtained by plotting tonic blocks versus drug concentrations. Dose-response curves were fitted to the tonic block data, according to the logistic equation: y=A2+(A1−A2)/[1+(x/IC50)^p]. A1 and A2 are fixed values of 0 and 1 corresponding to 0 and 100% current inhibition, x is the drug concentration, IC50 is the drug concentration resulting in 50% current inhibition and p is the corresponding slope factor.
Background: The patch-clamp technique gives a direct electrical read-out from membranes.

Test [2] concerns maximal electroshock seizures in mice. Description: Maximal electroshock test (MES) in mice. It counts as in vivo, mouse. To be noted: i.v., 5 minutes before testing. The text has this: Animals and Apparatus: Male CDl mice weighing 25 g were used. The procedure described by White et al. (White H. S., Woodhead J. H., Franklin […]., and Wolf H. H. Antiepileptic Drugs (1995) 4th ed: 99-110, Raven Press, Ltd., New York) was followed. An Ugo Basile electroconvulsive generator (Model ECT UNIT 7801) was used to deliver an electrical stimulus sufficient to produce a hindlimb tonic extensor response in at least 97% of control animals. The stimulus was delivered intra-aurally through clip electrodes in mice (0.7 s of a 40 mA shock, with a pulse train of 80 Hz having a pulse duration of 0.4 ms). […] Ten mice were studied per group. Complete suppression of the hindlimb tonic extensor component of seizures was taken as evidence of anticonvulsant activity.
In general terms: The maximal electroshock test induces tonic seizures with an electrical stimulus.

The target in test [3] is recombinant human N-type channels, h α1B (hCav2.2)+β1b+α2δ-1 subunits (Homo sapiens, UniProt Q00975). Description: Patch clamp studies of calcium currents inhibition in HEK293 cells. It counts as cell-based. The settings on record: tonic block, preconditioning −50/−55 mV (half maximal steady-state inactivated condition); read-out: IC50 (Vhalf). On the procedure: Functional inhibition of the N-type Ca currents was studied using whole cell patch clamp methods (Hamill O. P., Marty A., Neher E., Sakmann B., Sigworth F. J. Pflugers Arch. (1981) 391: 85-100) on HEK293 cells expressing recombinant human N-type channels, obtained after transient transfection of h α1B (hCav2.2)+β1b+α2δ-1 subunits.
Membrane currents were recorded and filtered at 5 kHz with an Axon Axopatch 200B amplifier and digitized with an Axon Digidata 1322A (Axon Instruments, CA, USA). Voltage clamping of membrane potentials and data acquisition were controlled online with Axon pClamp8 software. Measuring and reference electrodes were AgCl—Ag electrodes. Cells had initial seal resistances of >1 GΩ and access resistances of 4.2±0.2 MΩ. Cells were continuously superfused with extracellular solutions using a Biologic RSC-200.
For calcium currents recording the control bath solution contained (mM): Choline chloride (70), MgCl2 (1), BaCl2 (20), TEA.Cl (50), Hepes (10), Glucose (10). Internal pipette solution consisted of (mM): CsCl (140), EGTA (10), MgCl2 (2), Hepes (10), MgATP (1), GTP Tris (0.3).
as §1
A two-step protocol was used to determine the voltage dependence of the block:
N-type current was activated by a 600 ms step pulse to +10 mV (test pulse) from a 5000 ms preconditioning potential of −110 mV (resting condition) or −50/−55 mV (half maximal steady-state inactivated condition), respectively.
The amplitude of calcium current peaks evoked by the respective test pulses at a frequency of 0.06 Hz were measured before and after exposure to the test substance. Tonic block of currents was calculated as the difference between the peak calcium current measured at the end of a stabilization period in the control external bath solution and peak currents measured at the end of test substance perfusion period (when steady state is reached) divided by control peaks. […]

T1 sequence (Q9NY46 whole entry): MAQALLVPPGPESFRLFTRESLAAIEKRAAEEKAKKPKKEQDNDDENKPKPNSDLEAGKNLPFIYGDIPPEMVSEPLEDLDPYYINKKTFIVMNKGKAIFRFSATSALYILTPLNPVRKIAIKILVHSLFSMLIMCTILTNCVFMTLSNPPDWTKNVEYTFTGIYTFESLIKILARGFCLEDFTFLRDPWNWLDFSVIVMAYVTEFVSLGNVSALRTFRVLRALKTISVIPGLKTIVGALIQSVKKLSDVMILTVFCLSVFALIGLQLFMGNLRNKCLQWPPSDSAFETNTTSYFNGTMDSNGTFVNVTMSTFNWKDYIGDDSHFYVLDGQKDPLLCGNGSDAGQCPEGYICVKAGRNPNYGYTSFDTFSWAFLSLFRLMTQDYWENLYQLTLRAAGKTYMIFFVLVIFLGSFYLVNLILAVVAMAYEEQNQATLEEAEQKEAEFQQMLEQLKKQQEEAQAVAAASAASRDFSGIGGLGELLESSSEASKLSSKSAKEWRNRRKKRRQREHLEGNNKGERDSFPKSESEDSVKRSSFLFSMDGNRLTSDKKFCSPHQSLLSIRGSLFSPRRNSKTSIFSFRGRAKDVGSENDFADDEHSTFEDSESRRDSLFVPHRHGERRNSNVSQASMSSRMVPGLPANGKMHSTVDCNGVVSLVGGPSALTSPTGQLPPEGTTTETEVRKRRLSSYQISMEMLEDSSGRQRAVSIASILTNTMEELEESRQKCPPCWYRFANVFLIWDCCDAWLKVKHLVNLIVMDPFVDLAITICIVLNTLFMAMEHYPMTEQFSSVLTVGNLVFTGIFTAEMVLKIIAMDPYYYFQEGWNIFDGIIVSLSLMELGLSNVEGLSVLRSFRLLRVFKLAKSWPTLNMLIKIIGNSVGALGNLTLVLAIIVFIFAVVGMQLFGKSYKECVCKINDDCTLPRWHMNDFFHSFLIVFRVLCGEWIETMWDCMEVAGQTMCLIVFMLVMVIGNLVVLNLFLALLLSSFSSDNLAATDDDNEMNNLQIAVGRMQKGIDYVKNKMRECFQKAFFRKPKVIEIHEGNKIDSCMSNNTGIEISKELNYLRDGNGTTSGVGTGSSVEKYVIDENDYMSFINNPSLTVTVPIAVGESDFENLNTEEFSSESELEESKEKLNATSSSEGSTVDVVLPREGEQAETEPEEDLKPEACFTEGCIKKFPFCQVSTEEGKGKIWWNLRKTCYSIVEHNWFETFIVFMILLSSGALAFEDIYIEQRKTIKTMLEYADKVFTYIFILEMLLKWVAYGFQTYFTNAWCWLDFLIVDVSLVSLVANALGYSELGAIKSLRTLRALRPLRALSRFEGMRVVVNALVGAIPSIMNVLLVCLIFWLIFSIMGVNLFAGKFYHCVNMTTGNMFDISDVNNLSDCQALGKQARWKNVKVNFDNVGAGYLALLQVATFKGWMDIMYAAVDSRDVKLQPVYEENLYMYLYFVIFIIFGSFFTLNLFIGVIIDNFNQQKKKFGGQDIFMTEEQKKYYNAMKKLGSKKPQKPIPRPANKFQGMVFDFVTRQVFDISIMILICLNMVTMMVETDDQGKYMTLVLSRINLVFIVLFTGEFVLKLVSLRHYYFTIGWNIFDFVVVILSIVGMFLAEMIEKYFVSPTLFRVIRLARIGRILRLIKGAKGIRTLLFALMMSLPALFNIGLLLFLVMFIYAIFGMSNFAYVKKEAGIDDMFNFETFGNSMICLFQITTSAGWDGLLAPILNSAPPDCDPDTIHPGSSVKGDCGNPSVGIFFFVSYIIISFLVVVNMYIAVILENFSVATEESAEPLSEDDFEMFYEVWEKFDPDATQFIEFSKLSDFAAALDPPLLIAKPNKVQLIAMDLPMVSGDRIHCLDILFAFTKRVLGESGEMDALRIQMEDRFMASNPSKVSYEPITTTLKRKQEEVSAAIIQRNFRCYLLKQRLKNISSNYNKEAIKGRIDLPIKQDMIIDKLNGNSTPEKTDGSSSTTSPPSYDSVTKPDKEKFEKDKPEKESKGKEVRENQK

For orientation: IC50 means the concentration needed to halve the response being measured. For the compound `CCCCOc1cccc(CCN(CC(=O)N(C)C)CC2CCOC2)c1.Cl` (racemic) [Example 96, 2-[[2-(3-Butoxy-phenyl)-ethyl]-(tetrahydrofuran-3-ylmethyl)amino]-N,N-dimethyl-acetamide hydrochloride], the IC50 in test [1] came to 3.1 µM. The “50% Protection” value in test [2] is on record as “(0.8 mg/kg/iv)”.

In the case of `C[C@H](NCc1ccc(OCc2ccccc2F)cc1)C(N)=O` [ralfinamide, (S)-(+)-2-[4-(2-fluoro-benzyloxy)-benzylamino]-propanamide, reference compound], the IC50 in test [3] and in test [1] was 15 µM in each case.

Source of the values: patent US8129427B2, “2-phenylethylamino derivatives as calcium and/or sodium channel modulators” (Newron Pharmaceuticals S.p.A., priority 2005, dated 2012).
